The target in experiment [1] is T1, recombinant E2 protein (Hepatitis C virus genotype 1b, UniProt Q9WMX2).
T1 construct: encoding amino acids 384-656 of the Con1 envelope protein 2 ectodomain (eE2); made in house; host or cells: HEK293T cells (lentiviral, secreted)
The experiment in a line: Surface plasmon resonance (Biacore T100) binding to recombinant E2 immobilized on CM5 chip. Particulars: for Binding (RU): 200 μM ligand in PBS, 3 min association; for Dissociation 1 (RU): response remaining 10 sec after rinsing with buffer; for Dissociation 2 (RU): response remaining 50 sec after rinsing with buffer. An excerpt:
A construct containing the sequence encoding amino acids 384-656 of the Con1 envelope protein 2 ectodomain (eE2), a genoptype 1 E2 sequence, was cloned into a lentiviral expression vector with a carboxy-terminal Protein A tag separated by a PreScission Protease cleavage consensus sequence. eE2-ProtA was stably expressed in HEK293T cells using lentiviral infection. The protein was secreted into the media and supernatants were purified using IgG Sepharose (GE Healthcare, Piscataway, N.J.). eE2-ProtA was eluted with 100 mM sodium citrate and 20 mM KCl at pH 3 directly into tubes containing 1M Tris pH 9 for immediate neutralization. PreScission Protease was added to the eluted sample at a ratio of 1:50 (enzyme:eE2), and the digest was then dialyzed into 20 mM HEPES pH 7.5, 250 mM NaCl, 5% glycerol. eE2 was separated from the cleaved tag and the PreScission Protease by ion exchange chromatography.
The set of 34 of the ligands predicted by AutoDock to bind to E2 were tested experimentally to determine if they bind to recombinant E2 protein immobilized on a chip using surface Plasmon resonance. The SPR analyses were performed using a Biacore T100 workstation (GE Healthcare, NJ, USA) and Prot-A-tagged HCV E2 protein. 1 μM ProtA-HCV E2 was diluted into 10 mM sodium acetate buffer pH 5 and immobilized for 15 min at a flow speed of 5 μl/min onto a CM5 sensor chip using amine coupling (EDC-NHS). Approximately 10,000 response units (RU) of protein were immobilized on the chip. His-CD81-LEL (Bioclone-CA/USA) binding to HCV E2 was tested prior to injecting the ligands to confirm the E2 protein was functional and would bind CD81-LEL. In a typical experiment with CD81, […] of his-CD81 in 114 μl PBS was injected into channel 2 and 106.4 RUs of CD81 bound to the E2 on the chip. This was followed by testing the binding of the 34 virtual screening hits where the ligands were prepared as 200 μM solutions in PBS and they were introduced to the protein using a pre-programmed 3 min association and 1 min dissociation interval. The response was measured at two time points during dissociation, 10 and 50 seconds, to obtain information on the rate of ligand dissociation from E2. Twenty-three of the ligands predicted by AutoDock to bind to E2 were observed by SPR to bind to the recombinant protein (Table 2). The measured responses for the ligands that bound varied from 54 to 276 RUs. Data was also obtained on the rate of ligand dissociation by measuring the amount of ligand remaining bound at two time points, dissociation 1 (10 seconds) and dissociation 2 (50 seconds), during the rinsing of the chip with buffer (FIG. 8). The majority of the ligands dissociated quickly, as one might expect for small molecules that bind to the surface of a protein.
On the technique in general: SPR reads the build-up and loss of mass on a sensor chip optically.

Experiment [2] concerns RD114pp. The experiment in a line: RD114pp infection of Huh-7 cells (luciferase). The format is cell-based, feline endogenous virus RD114. The settings on record: Feline endogenous virus RD114, Huh-7, 30 h, read-out: IC50 RD114pp. Here is the method:
(§1) Pseudotyped retroviral particles harboring HCV envelope proteins (HCVpp) from different genotypes were produced as described previously. A plasmid encoding the feline endogenous virus RD114 glycoprotein [35] was used for the production of RD114pp. Both HCVpp and RD114pp expressed Firefly luciferase.
(§2) To identify ligands that inhibit HCV infection, Huh-7 cells were seeded in 96-well plates and treated the day after with six different concentrations of each ligand diluted in DMSO in duplicate using a Zephyr automated liquid handling workstation (Caliper BioSciences, Hopkinton, Mass.). The final concentration of DMSO (1%) was adjusted to be the same for all ligand concentrations. Cells treated with DMSO were used as negative controls. Cells treated with different concentrations of anti-CD81 (JS-81 from BD Pharmingen, San Jose, Calif.) 1 hour before infection, were also used as positive controls. The third day, RD114pp, HCVpp or HCVcc were inoculated and incubated for 30 hours at 37° C. Firefly and Gaussia luciferase assays were performed as indicated by the manufacturer (Promega, San Luis Obispo, Calif.).
Pseudotyped retroviral particles harboring the envelope protein of an endogenous feline retrovirus (RD114pp) were first used to determine the specificity and the safety of molecules.

The test system of experiment [3] is HCVpp 2a. The experiment in a line: HCVpp 2a infection of Huh-7 cells, 96-well (luciferase). The settings on record: Hepatitis C virus, Huh-7, 30 h, read-out: IC50 HCVpp. Type of experiment: cell-based, HCV. Here is the method: as §1, §2
(§3) The remaining ligands were next tested against pseudotyped retroviral particles harboring genotype-2a HCV envelope proteins (HCVpp 2a), cell culture produced HCV particles (HCVcc) or RD114pp. As a positive control, an anti-CD81 antibody was used in parallel.

Experiment [4] concerns HCVcc. The experiment in a line: HCVcc infection of Huh-7 cells (Gaussia luciferase). The format is cell-based, HCV. Particulars: Hepatitis C virus, Huh-7, 30 h, read-out: IC50 HCVcc. Here is the method: The cell culture-produced HCV particles (HCVcc) used in this study were based on the JFH1 strain [36] and were prepared as described previously. They were engineered to express the A4 epitope, titer-enhancing mutations and Gaussia luciferase.
as §2, §3

Experiment [5] has as its target E2 (Hepatitis C virus genotype 1a, UniProt P27958). The experiment in a line: Binding of CD81 ligand 73735 to E2 (method not given). Set-up: species or system HCV.

This note sets out measurements from patent publication US20160361311A1, “LIGANDS THAT TARGET HEPATITIS C VIRUS E2 PROTEIN” (AMERICAN UNIVERSITY OF CAIRO, priority 2014, published 2016).

T1 sequence (Q9WMX2 384-656): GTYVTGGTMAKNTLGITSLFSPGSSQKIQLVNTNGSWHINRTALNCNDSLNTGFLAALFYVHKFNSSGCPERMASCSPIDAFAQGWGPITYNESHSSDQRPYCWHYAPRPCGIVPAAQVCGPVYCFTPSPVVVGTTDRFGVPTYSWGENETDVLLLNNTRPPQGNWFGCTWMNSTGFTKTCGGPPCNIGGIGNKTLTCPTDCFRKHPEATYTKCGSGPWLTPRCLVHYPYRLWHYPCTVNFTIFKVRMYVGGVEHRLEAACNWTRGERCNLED
Chain of E2 (P27958 384-746): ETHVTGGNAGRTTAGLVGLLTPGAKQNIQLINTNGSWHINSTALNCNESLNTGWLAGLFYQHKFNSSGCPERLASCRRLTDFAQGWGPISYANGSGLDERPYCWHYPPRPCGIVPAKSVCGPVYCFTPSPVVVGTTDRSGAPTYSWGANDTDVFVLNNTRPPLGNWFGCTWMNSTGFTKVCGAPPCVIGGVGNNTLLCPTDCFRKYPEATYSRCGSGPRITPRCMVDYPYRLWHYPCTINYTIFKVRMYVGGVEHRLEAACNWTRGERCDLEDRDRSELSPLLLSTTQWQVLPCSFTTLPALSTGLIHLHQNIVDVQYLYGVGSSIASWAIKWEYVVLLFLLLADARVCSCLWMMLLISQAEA

With `CCCc1nc(NC(=O)c2ccccc2)nc(NC(=O)c2ccccc2)n1` [Ligand 359472, N-(4-benzamido-6-propyl-1,3,5-triazin-2-yl)benzamide], in experiment [1], the “Binding (RU)” value amounted to 62 RU, the “Dissociation 1 (RU)” value is on record as 2.5 RU and the “Dissociation 2 (RU)” value came to 0.8 RU. Moreover, in experiment [2], the IC50 (usually the concentration that gives 50% inhibition) is more than 10 µM. Further, in experiment [3], the IC50 is more than 10 µM. Further, the half-inhibitory concentration (IC50) in experiment [4] is more than 10 µM.

Regarding `O=C(Nc1cccc([N+](=O)[O-])c1)c1cccc(C(=O)Nc2cccc([N+](=O)[O-])c2)c1` [Ligand 204232], in experiment [1], the “Binding (RU)” value is recorded as 63.4 RU, the “Dissociation 1 (RU)” value was 2.5 RU and the “Dissociation 2 (RU)” value turned out to be 0.4 RU. The IC50 in experiment [2] is more than 10 µM. In addition, in experiment [3], the IC50 was more than 10 µM. Moreover, the half-inhibitory concentration (IC50) in experiment [4] is more than 10 µM.

For the compound `Cc1cc(-c2ccc(N3C(=O)CC4(CCCC4)C3=O)c(C)c2)ccc1N1C(=O)CC2(CCCC2)C1=O` [Ligand 308835, 2-[4-[4-(1,3-dioxo-2-azaspiro[4.4]nonan-2-yl)-3-methylphenyl]-2-methylphenyl]-2-azaspiro[4.4]nonane-1,3-dione], in experiment [1], the “Binding (RU)” value came to 64.8 RU, the “Dissociation 1 (RU)” value is listed as 7.1 RU and the “Dissociation 2 (RU)” value is reported as 5.2 RU. Besides, the IC50 in experiment [2] was more than 10 µM. Also, the IC50 in experiment [3] is more than 10 µM. Besides, in experiment [4], the half-maximal inhibitory concentration (IC50) was more than 10 µM.

Take `COc1cc(-c2ccc(Nc3ccccc3C(=O)O)c(OC)c2)ccc1Nc1ccccc1C(=O)O` [Ligand 73735]: the “binding to E2 (in words)” value in experiment [5] is “determined to bind to E2”.

With `NC1=N[C@@H](c2ccc(Cl)cc2)N(c2ccc(S(N)(=O)=O)cc2)C(N)=N1` [Ligand 117268], the “Binding (RU)” value in experiment [1] stood at 88.5 RU. Besides, the “Dissociation 1 (RU)” value in experiment [1] is 4.1 RU. Also, the “Dissociation 2 (RU)” value in experiment [1] came out at 1.2 RU. The values for the IC50 in experiment [2], in experiment [3] and in experiment [4] were 0.1 µM, more than 10 µM and more than 10 µM, respectively.

In the case of `NC(=O)C(=Cc1ccncc1)c1cccc2ccccc12` (stereo in doubt) [Ligand 144694, (E)-2-naphthalen-1-yl-3-pyridin-4-ylprop-2-enamide], in experiment [1], the “Binding (RU)” value is 118.8 RU, the “Dissociation 1 (RU)” value is 6 RU and the “Dissociation 2 (RU)” value amounted to 2.3 RU. Also, in experiment [2], the IC50 is more than 10 µM. Moreover, the half-inhibitory concentration (IC50) in experiment [3] was more than 10 µM. The half-inhibitory concentration (IC50) in experiment [4] was more than 10 µM.

For the compound `C[C@]12CC[C@@H]3c4ccc(OCC(=O)O)cc4CC[C@H]3[C@@H]1CCC2=O` [Ligand 86467, 2-[[(8R,9S,13S,14S)-13-methyl-17-oxo-7,8,9,11,12,14,15,16-octahydro-6H-cyclopenta[a]phenanthren-3-yl]oxy]acetate], in experiment [1], the “binding to recombinant E2 protein by SPR (in words)” value is listed as “bound”, the “Binding (RU)” value was 54.9 RU, the “Dissociation 1 (RU)” value worked out at 1.9 RU and the “Dissociation 2 (RU)” value was 0.8 RU. For the same compound, the IC50 in experiment [2] was more than 10 µM. The IC50 in experiment [3] is more than 10 µM. The IC50 in experiment [4] is more than 10 µM.
